Laboratory results published in paper PMC5515969, “Effects of 31 FDA approved small-molecule kinase inhibitors on isolated rat liver mitochondria” (Archives of Toxicology, 2016).

Columns and labels:
[1] = system: isolated rat liver mitochondria; experiment: Mitochondrial oxygen consumption (glutamate/malate or succinate driven, state 4 and state 3); format: biochemical; settings: DMSO treated samples set as 1; as to State 3 respiration driven by succinate at 10XCmax: key: 0 indicates that the drug had no effects (negative); as to State 3 respiration driven by succinate at 1XCmax: key: 0 indicates that the drug had no effects (negative)
Method in brief: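 Rat liver mitochondria (1 mg/ml protein) exposed 5 min to kinase inhibitors in 0.1% DMSO, then O2 consumption measured by Clark-type electrode with glutamate/malate or succinate (state 4), ADP added after 3 min (state 3). Rates normalized to 0.1% DMSO controls set to 1.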

[2] = system: RCC I; experiment: RCC I activity in submitochondrial particles; format: biochemical, rat; parameters: key to RCC I at 10XCmax / RCC I at 100XCmax / RCC I at 50XCmax / RCC I at 30XCmax / RCC I at 20XCmax: activity relative to DMSO-treated controls (control set as 1 = 100%); settings: 10XCmax; DMSO treated samples set as 1
Method in brief: (§1)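 Inhibitors preincubated 15 min with submitochondrial particles (1 mg/ml) before activity readout. RCC I (rotenone-sensitive fraction) and I/V: A340, and RCC II: A600, each every 1 min for 6 min; RCC III/IV: A550 every 10 s for 2 min. Activities relative to DMSO control set as 1.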

[3] = target: T1, RCC II (Rattus norvegicus, UniProt P21913+Q641Z9+Q6PCT8+Q920L2); experiment: RCC II activity in submitochondrial particles; format: biochemical; parameters: key: activity relative to DMSO-treated controls (control set as 1 = 100%); settings: DMSO treated samples set as 1
T1 construct: Submitochondrial particles were prepared by subjecting the intact mitochondria to three successive freeze–thaw cycles; from tissue; host or cells: rat liver mitochondria, used as submitochondrial particles
Method in brief: as §1

[4] = system: RCC III; experiment: RCC III activity in submitochondrial particles; format: biochemical, rat; parameters: key to RCC III at 100XCmax: activity relative to DMSO-treated controls (control set as 1 = 100%); settings: 100XCmax
Experimental: (§2) KIs were incubated with submitochondrial particles (1 mg/ml) for 15 min and then RCC I–V activities measured. […] The activities of DMSO-treated samples (controls) were set as 1. […] The difference between the activity from rotenone-containing buffer and rotenone-absent buffer was considered as RCC I activity. […] For measuring RCC I/V and II activity, the changes in absorbance at 340 and 600 nm, respectively, were determined every 1 min for 6 min. For measuring RCC III and RCC IV, the changes in absorbance at 550 nm were measured every 10 s for 2 min.

[5] = system: RCC IV; experiment: RCC IV activity in submitochondrial particles; format: biochemical, rat; parameters: key to RCC IV at 50XCmax / RCC IV at 100XCmax: activity relative to DMSO-treated controls (control set as 1 = 100%); settings: 50XCmax; DMSO treated samples set as 1; in %
Experimental: as §2

[6] = system: RCC V; experiment: RCC V activity in submitochondrial particles; format: biochemical, rat; settings: DMSO treated samples set as 1; as to RCC V at 5XCmax: key: 0 indicates that the drug had no effects (negative)
Method in brief: as §1

[7] = system: isolated rat liver mitochondria; experiment: Mitochondrial inner membrane potential (MMP), Rhodamine 123; format: biochemical; settings: difference in signal between KI and DMSO treated samples at the end of experiments
Source text: Fig. 3 KI effects on mitochondrial inner membrane potential (MMP). […] In a, c, data are means and standard derivations from three separate experiments. *p < 0.05 as compared to DMSO-treated samples at the end of experiments. In b, data are means of two independent experiments

[8] = system: isolated rat liver mitochondria; experiment: Mitochondrial swelling (absorbance at 535 nm); format: biochemical; settings: difference in signal between KI and DMSO treated samples at the end of experiments; as to Swelling 5XCmax: key: 0 indicates that the drug had no effects (negative)
[9] = system: isolated rat liver mitochondria; experiment: Mitochondrial toxicity, any endpoint, intact mitochondria and submitochondrial particles; format: biochemical; settings: any endpoint
Experimental: Rats were anesthetized by an intraperitoneal injection of Nembutal and the liver perfused with PBS to remove the blood. The liver was then cut into small pieces and homogenized using a Dounce type homogenizer in the ice-cold isolation buffer (IB) containing 200 mM sucrose, 10 mM Tris-MOPS, 1 mM EGTA (pH 7.4). The sample was then centrifuged at 600g for 10 min. The supernatant was further centrifuged at 7500g for 10 min, and the pellets was washed once with the IB and centrifuged again at 7500g for 10 min to collect mitochondria. […] Before drug treatment, the protein concentration was adjusted to 1 mg/ml using appropriate buffer. […] Briefly, mitochondrial and cytosolic fractions from four different preparations using four rats were diluted using the Laemmli protein loading buffer and subject to SDS-PAGE with 4–20% gradient gels. The proteins were blotted to PVDF membranes and detected using antibodies against GAPDH, ATP5A, UQCRC2, SDHB, and NDUFB8.
The aliquoted stock solutions were kept for less than one month and each tube was used only once. The KIs were added to the mitochondria at 1:1000 dilutions. […] The Cmax data were from clinical trials which used FDA recommend dosages, route of administration, and duration. […] The final concentration of DMSO for drug treatment was always 0.1%, and control treatments were 0.1% DMSO.

[10] = system: isolated rat liver mitochondria; settings: positive control alamethicin treated samples
[11] = system: isolated rat liver mitochondria; experiment: Mitochondrial ROS production (CM-H2DCFDA); settings: DMSO treated samples set as 1

T1 sequence (Q920L2 35-656): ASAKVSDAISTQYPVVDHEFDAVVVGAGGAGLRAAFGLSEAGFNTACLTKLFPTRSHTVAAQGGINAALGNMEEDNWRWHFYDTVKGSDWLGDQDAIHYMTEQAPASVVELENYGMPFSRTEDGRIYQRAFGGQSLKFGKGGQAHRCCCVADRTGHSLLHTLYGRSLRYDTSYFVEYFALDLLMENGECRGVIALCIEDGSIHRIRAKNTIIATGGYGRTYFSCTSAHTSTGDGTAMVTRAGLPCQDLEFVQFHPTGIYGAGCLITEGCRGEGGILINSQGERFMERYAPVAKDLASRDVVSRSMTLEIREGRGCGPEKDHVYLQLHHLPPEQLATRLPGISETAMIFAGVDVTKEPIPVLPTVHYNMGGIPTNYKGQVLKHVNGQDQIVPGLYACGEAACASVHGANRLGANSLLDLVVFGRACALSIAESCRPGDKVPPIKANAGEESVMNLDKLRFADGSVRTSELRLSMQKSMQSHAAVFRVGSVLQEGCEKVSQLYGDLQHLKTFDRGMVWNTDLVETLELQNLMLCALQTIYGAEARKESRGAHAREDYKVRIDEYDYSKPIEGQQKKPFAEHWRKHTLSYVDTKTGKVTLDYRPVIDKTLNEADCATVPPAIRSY
T1 sequence (P21913 31-282): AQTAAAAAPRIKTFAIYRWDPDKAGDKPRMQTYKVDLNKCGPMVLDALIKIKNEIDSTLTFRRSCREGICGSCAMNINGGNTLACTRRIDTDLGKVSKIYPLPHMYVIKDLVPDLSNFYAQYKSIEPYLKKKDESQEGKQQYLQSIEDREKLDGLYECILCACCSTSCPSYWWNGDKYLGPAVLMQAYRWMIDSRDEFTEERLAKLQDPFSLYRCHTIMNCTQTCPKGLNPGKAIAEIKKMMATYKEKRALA
T1 sequence (Q641Z9 1-169): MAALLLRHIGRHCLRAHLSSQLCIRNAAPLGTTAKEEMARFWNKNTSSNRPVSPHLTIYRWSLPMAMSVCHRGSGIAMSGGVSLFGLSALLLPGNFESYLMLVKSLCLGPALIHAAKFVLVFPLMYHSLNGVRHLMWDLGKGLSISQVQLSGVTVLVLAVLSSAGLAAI
T1 sequence (Q6PCT8 57-159): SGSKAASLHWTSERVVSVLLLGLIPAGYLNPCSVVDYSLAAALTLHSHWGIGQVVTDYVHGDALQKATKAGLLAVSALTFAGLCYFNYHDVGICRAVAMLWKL

SMILES: C=CC(=O)N1CCC[C@@H](n2nc(-c3ccc(Oc4ccccc4)cc3)c3c(N)ncnc32)C1 [Ibrutinib]
- State 3 respiration driven by succinate at 1XCmax ([1]; 1XCmax): 0
- State 4 respiration driven by succinate at 1XCmax ([1]; 1XCmax): 0
- State 3 respiration driven by succinate at 2.5XCmax ([1]; 2.5XCmax): 0
- State 4 respiration driven by succinate at 2.5XCmax ([1]; 2.5XCmax): 0
- State 3 respiration driven by succinate at 5XCmax ([1]; 5XCmax): 0
- State 4 respiration driven by succinate at 5XCmax ([1]; 5XCmax): 0
- State 3 respiration driven by succinate at 10XCmax ([1]; 10XCmax): 0
- State 4 respiration driven by succinate at 10XCmax ([1]; 10XCmax): 0
- State 3 respiration driven by succinate at 20XCmax ([1]; 20XCmax): 0
- State 4 respiration driven by succinate at 20XCmax ([1]; 20XCmax): 0
- State 3 respiration driven by succinate at 30XCmax ([1]; 30XCmax): 0
- State 4 respiration driven by succinate at 30XCmax ([1]; 30XCmax): 0
- State 3 respiration driven by succinate at 50XCmax ([1]; 50XCmax): 0
- State 4 respiration driven by succinate at 50XCmax ([1]; 50XCmax): 0
- State 3 respiration driven by succinate at 100XCmax ([1]; 100XCmax): 0
- State 4 respiration driven by succinate at 100XCmax ([1]; 100XCmax): 0
- RCC I at 10XCmax [2]: 0
- RCC II at 1.0XCmax ([3]; 1.0XCmax): 0
- RCC II at 2.5XCmax ([3]; 2.5XCmax): 0
- RCC II at 5XCmax ([3]; 5XCmax): 0
- RCC II at 10XCmax ([3]; 10XCmax): 0
- RCC II at 20XCmax ([3]; 20XCmax): 0
- RCC II at 30XCmax ([3]; 30XCmax): 0
- RCC II at 50XCmax ([3]; 50XCmax): 0
- RCC II at 100XCmax ([3]; 100XCmax): 0
- RCC III at 100XCmax [4]: 0
- RCC IV at 50XCmax [5]: 0
- RCC V at 5XCmax ([6]; 5XCmax): 0
- RCC V at 50XCmax ([6]; 50XCmax): 0
- MMP measured by Rhodamine 123 at 1XCmax ([7]; 1XCmax): 0
- MMP measured by Rhodamine 123 at 2.5XCmax ([7]; 2.5XCmax): 0
- MMP measured by Rhodamine 123 at 5XCmax ([7]; 5XCmax): 0
- MMP measured by Rhodamine 123 at 10XCmax ([7]; 10XCmax): 0
- MMP measured by Rhodamine 123 at 20XCmax ([7]; 20XCmax): 0
- MMP measured by Rhodamine 123 at 30XCmax ([7]; 30XCmax): 0
- MMP measured by Rhodamine 123 at 50XCmax ([7]; 50XCmax): 0
- MMP measured by Rhodamine 123 at 100XCmax ([7]; 100XCmax): 0
- Swelling 1XCmax ([8]; 1XCmax): 0
- Swelling 2.5XCmax ([8]; 2.5XCmax): 0
- Swelling 5XCmax ([8]; 5XCmax): 0
- Swelling 10XCmax ([8]; 10XCmax): 0
- Swelling 20XCmax ([8]; 20XCmax): 0
- Swelling 30XCmax ([8]; 30XCmax): 0
- Swelling 50XCmax ([8]; 50XCmax): 0
- Swelling 100XCmax ([8]; 100XCmax): 0
- lowest concentration causing significant mitochondrial toxicity [9]: 50 fold Cmax
- Cytochrome c release 1XCmax ([10]; 1XCmax): 0
- Cytochrome c release 2.5XCmax ([10]; 2.5XCmax): 0
- Cytochrome c release 5XCmax ([10]; 5XCmax): 0
- Cytochrome c release 10XCmax ([10]; 10XCmax): 0
- Cytochrome c release 20XCmax ([10]; 20XCmax): 0
- Cytochrome c release 30XCmax ([10]; 30XCmax): 0
- Cytochrome c release 50XCmax ([10]; 50XCmax): 0
- Cytochrome c release 100XCmax ([10]; 100XCmax): 0
- ROS measured by CM-H2DCFDA at 1XCmax ([11]; 1XCmax): 0
- ROS measured by CM-H2DCFDA at 2.5XCmax ([11]; 2.5XCmax): 0
- ROS measured by CM-H2DCFDA at 5XCmax ([11]; 5XCmax): 0
- ROS measured by CM-H2DCFDA at 10XCmax ([11]; 10XCmax): 0
- ROS measured by CM-H2DCFDA at 20XCmax ([11]; 20XCmax): 0
- ROS measured by CM-H2DCFDA at 30XCmax ([11]; 30XCmax): 0
- ROS measured by CM-H2DCFDA at 50XCmax ([11]; 50XCmax): 0
- ROS measured by CM-H2DCFDA at 100XCmax ([11]; 100XCmax): 0
